{
  "source": "patent US3966715A",
  "about": "“Herbicidal agents” (Bayer Aktiengesellschaft, priority 1966, dated 1976)",
  "key": {"Echinochloa [1]": {"system": "Echinochloa", "experiment": "Pre-emergence test, Echinochloa", "type": "in vivo", "details": "three weeks", "experimental": "(§1) Solvent: 5 parts by weight acetone\n(§2) 1 part by weight benzyloxypolyglycol ether\n(§3) To produce a suitable preparation of the particular active compound, 1 part by weight of such active compound is mixed with the stated amount of solvent, the stated amount of emulsifier is then added and the resulting concentrate is thereafter diluted with water to the desired final concentration.\n(§4) Seeds of the test plants are sown in normal soil and, after 24 hours, watered with the preparation of the given active compound. It is expedient to keep constant the amount of water per unit area. The concentration of the particular active compound in the preparation is of no importance, only the amount of active compound applied per unit area being decisive. After three weeks, the degree of damage to the test plants is determined and characterized by the values 0-5, which have the following meaning:\n(§5) The procedure of Example 1 is repeated, and the particular active compounds tested, the amounts applied, and the results obtained can be seen from the following Table 1D: […]"}, "Galinsoga": {"system": "Galinsoga", "experiment": "Post-emergence test, Galinsoga", "type": "in vivo", "details": "three weeks", "experimental": "as §1, §2, §3\n(§6) Test plants which have a height of about 5--15 cm. are sprayed with the preparation of the given active compound until just dew moist. After three weeks, the degree of damage to the plants is determined and characterized by the values 0-5, which have the following meaning:\n(§7) The procedure of Example 2 is repeated, and the particular active compounds tested, and amounts applied, and the results obtained can be seen from the following Table 2E: […]"}, "Oats [2]": {"system": "Oats", "experiment": "Post-emergence test, oats", "type": "in vivo", "details": "three weeks", "experimental": "as §1, §2, §3, §6, §7"}, "dwarf beans": {"system": "dwarf beans", "experiment": "Defoliant test", "type": "in vivo", "details": "0.05% active compound", "experimental": "There is prepared, in the same manner as described in Example 1, an active compound preparation which contains 0.05% of\n(1a\") 3-methylthio-4-amino-6-phenyl-1,2,4-triazine-5-one.\nA field of dwarf beans is sprayed with this preparation of the active compound so that the dwarf beans themselves are only just dripping wet."}, "Wheat [3]": {"system": "Wheat", "experiment": "Pre-emergence test, wheat", "type": "in vivo", "details": "three weeks", "experimental": "as §1, §2, §3, §4, §5"}, "Oats [4]": {"system": "Oats", "experiment": "Pre-emergence test, oats", "type": "in vivo", "details": "three weeks", "experimental": "as §1, §2, §3, §4, §5"}, "test plants [5]": {"system": "test plants", "experiment": "Pre-emergence test, overall", "type": "in vivo", "details": "Example 1", "experimental": "as §1, §2, §3, §4, §5"}, "Sinapis [6]": {"system": "Sinapis", "experiment": "Post-emergence test, Sinapis", "type": "in vivo", "details": "three weeks", "experimental": "as §1, §2, §3, §6, §7"}, "Chenopodium": {"system": "Chenopodium", "experiment": "Post-emergence test, Chenopodium", "type": "in vivo", "details": "three weeks", "experimental": "as §1, §2, §3, §6, §7"}, "Sinapis [7]": {"system": "Sinapis", "experiment": "Pre-emergence test, Sinapis", "type": "in vivo", "details": "three weeks", "experimental": "as §1, §2, §3, §4, §5"}, "Wheat [8]": {"system": "Wheat", "experiment": "Post-emergence test, wheat", "type": "in vivo", "details": "2.4 Kg/hectare, three weeks", "experimental": "as §1, §2, §3, §6, §7"}, "soybeans": {"system": "soybeans", "experiment": "Pre-emergence selectivity, soybeans", "type": "in vivo"}, "test plants [9]": {"system": "test plants", "experiment": "Post-emergence test, overall", "type": "in vivo", "experimental": "as §1, §2, §3, §6, §7"}, "Cotton [10]": {"system": "Cotton", "experiment": "Pre-emergence test, cotton", "type": "in vivo", "details": "three weeks", "experimental": "as §1, §2, §3, §4, §5"}, "plants and weeds": {"system": "plants and weeds", "experiment": "General herbicidal activity", "type": "in vivo", "details": "for usefulness as herbicide: compared with compound 221"}, "Stellaria": {"system": "Stellaria", "experiment": "Post-emergence test, Stellaria", "type": "in vivo", "details": "0.6 Kg/hectare, three weeks", "experimental": "as §1, §2, §3, §6, §7"}, "Cotton [11]": {"system": "Cotton", "experiment": "Post-emergence test, cotton", "type": "in vivo", "details": "1.2 Kg/hectare, three weeks", "experimental": "as §1, §2, §3, §6, §7"}, "Echinochloa [12]": {"system": "Echinochloa", "experiment": "Post-emergence test, Echinochloa", "type": "in vivo", "details": "1.2 Kg/hectare, three weeks", "experimental": "as §1, §2, §3, §6, §7"}, "nematoeds": {"system": "nematoeds", "experiment": "Nematocidal activity on the soil", "type": "in vivo", "details": "1 Kg/hectare"}, "Alternaria": {"system": "Alternaria", "experiment": "Fungicidal activity", "type": "in vivo", "details": "particularly against Alternaria"}, "cotton and tomatoes": {"system": "cotton and tomatoes", "experiment": "Pre-emergence selectivity, cotton and tomatoes", "type": "in vivo", "details": "pre-emergence application"}, "Oral toxicity in rats": {"experiment": "Oral toxicity in rats", "details": "rat, in vivo, po"}, "rats": {"system": "rats", "experiment": "Oral toxicity in rats", "details": "in words"}, "[13]": {"system": "corn, potatoes, millet and peanuts", "experiment": "Use in growing corn, potatoes, millet and peanuts", "type": "in vivo", "details": "0.3-2 kg/hectare"}},
  "data": [
    {"smiles": "CCNc1nc(Cl)nc(NCC)n1", "note": "[A, 2,6-di-(ethylamino)-4-chloro-1,3,5-triazine, reference compound]", "values": [
      {"measurement": "degree of damage, Echinochloa", "setting": "Echinochloa [1]; 5 kg/hectare", "result": "3-4"},
      {"measurement": "degree of damage, Galinsoga", "setting": "Galinsoga; 0.1 % active compound", "result": "4-5"}
    ]},
    {"smiles": "CSc1nnc(-c2ccccc2)c(=O)n1N", "note": "[Compound 1a, 3-methylthio-4-amino-6-phenyl-1,2,4-triazine-5-one]", "values": [
      {"measurement": "degree of damage, Echinochloa", "setting": "Echinochloa [1]; 1.25 kg/hectare", "result": "4-5"},
      {"measurement": "degree of damage, Oats", "setting": "Oats [2]; 1.2 Kg/hectare", "result": "4-5"},
      {"measurement": "degree of damage, Oats", "setting": "Oats [2]; 2.4 Kg/hectare", "result": "4-5"},
      {"measurement": "harvesting of the beans", "setting": "dwarf beans", "result": "quite considerably facilitated"},
      {"measurement": "drying up of leaves", "setting": "dwarf beans; after 8 days", "result": "completely dried up"}
    ]},
    {"smiles": "CSc1nnc(C2CCCCC2)c(=O)n1N", "note": "[Compound 2, 3-methylthio-4-amino-6-cyclohexyl-1,2,4-triazine-5-one]", "values": [
      {"measurement": "degree of damage, Wheat", "setting": "Wheat [3]; 1.25 kg/hectare", "result": "4-5"},
      {"measurement": "degree of damage, Oats", "setting": "Oats [4]; 1.25 kg/hectare", "result": "4-5"},
      {"measurement": "kind of herbicidal action", "setting": "test plants [5]", "result": "pronouncedly total-herbicidal action"}
    ]},
    {"smiles": "CCSc1nnc(-c2ccccc2)c(=O)n1N", "note": "[Compound 3, 3-ethylthio-4-amino-6-phenyl-1,2,4-triazine-5-one]", "values": [
      {"measurement": "kind of herbicidal action", "setting": "test plants [5]", "result": "selectively herbicidal action in wheat and cotton"}
    ]},
    {"smiles": "Nn1c(N2CCCCC2)nnc(-c2ccccc2)c1=O", "note": "[Compound 25, 3-piperidino-4-amino-6-phenyl-1,2,4-triazine-5-one]", "values": [
      {"measurement": "degree of damage, Sinapis", "setting": "Sinapis [6]; 10 Kg/hectare", "result": "4-5"},
      {"measurement": "degree of damage, Chenopodium", "setting": "Chenopodium; 10 Kg/hectare", "result": "3-4"}
    ]},
    {"smiles": "CCNc1nnc(C(C)C)c(=O)n1N", "note": "[Compound 177, 3-ethylamino-4-amino-6-isopropyl-1,2,4-triazine-5-one]", "values": [
      {"measurement": "degree of damage, Sinapis", "setting": "Sinapis [7]; 5 kg/hectare", "result": "4-5"},
      {"measurement": "degree of damage, Oats", "setting": "Oats [4]; 2.5 kg/hectare", "result": "4-5"},
      {"measurement": "degree of damage, Oats", "setting": "Oats [2]; 2.4 Kg/hectare", "result": "4-5"},
      {"measurement": "degree of damage, Wheat", "setting": "Wheat [8]", "result": "4-5"},
      {"measurement": "degree of damage, Galinsoga", "setting": "Galinsoga; 2.4 Kg/hectare", "result": "4-5"}
    ]},
    {"smiles": "CSc1nnc(C(C)C)c(=O)n1NC(O)C(Cl)(Cl)Cl", "note": "(stereo not drawn) [Compound 191, 3-methylthio-4-(β-trichloro-α-hydroxy-ethyl)-amino-6-isopropyl-1,2,4-triazine-5-one]", "values": [
      {"measurement": "degree of damage, Sinapis", "setting": "Sinapis [6]; 1.2 Kg/hectare", "result": "4-5"}
    ]},
    {"smiles": "CSc1nnc(C(C)(C)C)c(=O)n1N=C1CCCCC1", "note": "[Compound 221, 3-methylthio-4-(cyclohexylidene-amino)-6-tert.-butyl-1,2,4-triazine-5-one]", "values": [
      {"measurement": "degree of damage, Wheat", "setting": "Wheat [3]; 1.25 kg/hectare", "result": "4-5"},
      {"measurement": "selectivity", "setting": "soybeans", "result": "selective for soybeans"},
      {"measurement": "general herbicidal activity", "setting": "test plants [9]", "result": "very good general herbicidal activity"},
      {"measurement": "degree of damage, Wheat", "setting": "Wheat [8]", "result": "4-5"}
    ]},
    {"smiles": "CSc1nnc(C(C)(C)C)c(=O)n1N=Cc1ccco1", "note": "[Compound 222, 3-methylthio-4-(furfur-2'-ylidene-amino)-6-tert.-butyl-1,2,4-triazine-5-one]", "values": [
      {"measurement": "degree of damage, Wheat", "setting": "Wheat [3]; 5 kg/hectare", "result": "4-5"},
      {"measurement": "degree of damage, Cotton", "setting": "Cotton [10]; 1.25 kg/hectare", "result": "4-5"},
      {"measurement": "degree of damage, Sinapis", "setting": "Sinapis [7]; 1.25 kg/hectare", "result": "4-5"},
      {"measurement": "degree of damage, Oats", "setting": "Oats [4]; 1.25 kg/hectare", "result": "4-5"},
      {"measurement": "usefulness as herbicide", "setting": "plants and weeds", "result": "similarly useful"},
      {"measurement": "degree of damage, Wheat", "setting": "Wheat [8]", "result": "4-5"},
      {"measurement": "degree of damage, Stellaria", "setting": "Stellaria", "result": "4-5"}
    ]},
    {"smiles": "CSc1nnc(C(C)C)c(=O)n1N=C1CCCC1", "note": "[Compound 223, 3-methylthio-4-(cyclopentylidene-amino)-6-isopropyl-1,2,4-triazine-5-one]", "values": [
      {"measurement": "degree of damage, Wheat", "setting": "Wheat [3]; 2.5 kg/hectare", "result": "4-5"},
      {"measurement": "degree of damage, Wheat", "setting": "Wheat [3]; 5 kg/hectare", "result": "4-5"},
      {"measurement": "degree of damage, Cotton", "setting": "Cotton [10]; 2.5 kg/hectare", "result": "4-5"},
      {"measurement": "degree of damage, Cotton", "setting": "Cotton [10]; 5 kg/hectare", "result": "4-5"},
      {"measurement": "degree of damage, Cotton", "setting": "Cotton [11]", "result": "4-5"},
      {"measurement": "degree of damage, Sinapis", "setting": "Sinapis [7]; 1.25 kg/hectare", "result": "4-5"},
      {"measurement": "degree of damage, Oats", "setting": "Oats [4]; 1.25 kg/hectare", "result": "4-5"},
      {"measurement": "usefulness as herbicide", "setting": "plants and weeds", "result": "similarly useful"},
      {"measurement": "degree of damage, Echinochloa", "setting": "Echinochloa [12]", "result": "4-5"},
      {"measurement": "degree of damage, Chenopodium", "setting": "Chenopodium; 1.2 Kg/hectare", "result": "4-5"}
    ]},
    {"smiles": "CSc1nnc(C(C)(C)C)c(=O)n1N=Cc1ccccc1", "note": "[Compound 236]", "values": [
      {"measurement": "killing of nematodes", "setting": "nematoeds", "result": "kills nematoeds"},
      {"measurement": "fungicidal activity", "setting": "Alternaria", "result": "exhibits fungicidal activity, particularly against Alternaria"},
      {"measurement": "general properties", "setting": "plants and weeds; compared with compounds 221, 222, 223", "result": "same general properties"},
      {"measurement": "selectivity", "setting": "cotton and tomatoes", "result": "selective as to cotton and tomatoes"},
      {"measurement": "LD50", "setting": "Oral toxicity in rats", "result": 1000, "unit": "mg/kg"},
      {"measurement": "toxicity", "setting": "rats", "result": "quite low"},
      {"measurement": "effectiveness in growing crops", "setting": "[13]", "result": "effective in growing corn, potatoes, millet and peanuts"}
    ]}
  ]
}
